{"source": "paper PMC12775434", "about": "“Ultra-large virtual screening unveils potent agonists of the neuromodulatory orphan receptor GPR139” (Nature Communications, 2025)", "key": {"GPR139 [1]": {"molecular_target": "T1, GPR139 (Homo sapiens, UniProt Q6DWJ6)", "T1 sequence (Q6DWJ6 1-353)": "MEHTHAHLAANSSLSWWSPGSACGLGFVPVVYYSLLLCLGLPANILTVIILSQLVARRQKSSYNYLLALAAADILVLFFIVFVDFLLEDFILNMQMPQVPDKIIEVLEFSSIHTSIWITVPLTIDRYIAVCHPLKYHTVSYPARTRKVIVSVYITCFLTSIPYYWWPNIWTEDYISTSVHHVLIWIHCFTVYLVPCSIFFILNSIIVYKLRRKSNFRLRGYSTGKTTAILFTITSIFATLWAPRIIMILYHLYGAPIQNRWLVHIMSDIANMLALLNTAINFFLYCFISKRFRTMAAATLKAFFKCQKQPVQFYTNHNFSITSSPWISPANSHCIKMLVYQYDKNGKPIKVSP", "experiment": "Ca2+ mobilization assay, agonist mode, stable GPR139-CHOk1 cell line", "type": "cell-based", "method_in_brief": "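Agonist activity of compounds is assessed in stably transfected CHO-K1 cells using the calcium dye Fluo-4 at 37 °C in HEPES-buffered HBSS (pH 7.4). Efficacy is expressed relative to the reference agonist Lundbeck Cmp 1a, set as 100%.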"}, "GPR139 [2]": {"molecular_target": "T1, GPR139", "experiment": "Inositol monophosphate (IP1) accumulation assay, GPR139-CHOk1", "type": "cell-based", "conditions": "for IP1 response (% of Cmp 1a): replicate experiments", "method": "Primary screening and pharmacological characterization of compounds were performed using a CHO-K1 cell line that stably expresses human GPR139 (GPR139-CHOk1). The GPR139-CHOk1 cell line was kindly provided by H. Lundbeck A/S, Denmark[24]. GPR139-CHOk1 cells were grown in Ham’s F-12 Kaighn’s Modification Medium (ThermoFisher #21127030) supplemented with 10% dialyzed fetal bovine serum (US origin, ThermoFisher #26400044), 100 units/mL Penicillin-Streptomycin (ThermoFisher #15140122), and 1 mg/mL Geneticin (ThermoFisher #11811031). […] M1R-CHOk1 cells were purchased from The Missouri S&T cDNA Resource Center (#CEM100TN00). M1R-CHOk1 cells were grown in Ham’s F12 Medium (ThermoFisher #21765029) supplemented with 10% fetal bovine serum (Brazilian origin, ThermoFisher #10270106), 100 units/mL Penicillin-Streptomycin, and 0.25 mg/mL Geneticin. HEK293A cells transiently transfected with GPR139 were used for additional pharmacological assessment of signaling pathways activated by GPR139. HEK239A cells were generously provided by Dr. Asuka Inoue, Tohoku University, Japan. HEK293A cells were grown in Dulbecco’s Modified Eagle Medium (ThermoFisher #31966047) supplemented with 10% dialyzed fetal bovine serum and 100 units/mL Penicillin-Streptomycin. Cell lines were maintained at 37 °C in humidified incubator equilibrated with 5% CO2.\nHTRF IP-One Gq kit (Cisbio #62IPAPEC) was used to detect the accumulation of inositol monophosphate (IP1) as described in the work by Shehata et al.[26]. GPR139-CHOk1 cells were dissociated and resuspended in HEPES buffer. 50,000 cells in 5 µL and 5 µL test compounds diluted from DMSO stocks (final DMSO concentration of maximally 0.3%) in HEPES buffer supplemented with 40 mM LiCl were mixed in each well of white 384-well OptiPlate (PerkinElmer #6007290). The cells were incubated for 1 h at 37 °C. Then, 10 µL detection reagent composed of 2.5% Eu3 + -anti-IP1 antibody and 2.5% IP1-d2 diluted in lysis buffer was added, and the cells were incubated for 1 h at room temperature before measurements. Measurements were performed on EnVision Multimode Plate Reader (PerkinElmer) using excitation light of 340 nm and emission light of 615 nm and 665 nm. The time resolved-fluorescence resonance energy transfer (TR-FRET) 665 nm/615 nm ratio, which is inversely proportional to the IP1 accumulation, was used to determine the IP1 response.\nPharmacological data and statistical analyses were performed in GraphPad Prism v9–10 (Graphpad Software Inc., San Diego, CA), which are also specifically described in the figure and table legends. The functional assay responses were normalized to buffer (0%) and Lundbeck Cmp 1a or JNJ-63533054 (100%), for Ca^2+ and IP1 experiments in the GPR139-CHOk1 stable cell line or Ca^2+, G protein activation, and arrestin-3 recruitment experiments in the HEK293A cells transiently transfected with GPR139, respectively. Data are from at least three independent experiments, unless stated otherwise. Concentration-response curves were fitted applying non-linear regression using the log (agonist) versus response model with variable slope. ANOVA was applied for comparing results and determining statistical significance. Comparison of responses to the reference was performed using one-way ANOVA with Dunnett’s multiple comparisons test at significance threshold of p < 0.05. Comparison of responses across assays and ligands was performed using two-way ANOVA with Tukey’s multiple comparisons test at a significance threshold of p < 0.05."}, "[3]": {"test_system": "patients with schizophrenia and major depressive disorder", "conditions": "cited from earlier work"}}, "note": "Where “and” joins values, the source holds several entries; their conditions need not be identical. Equal values may be shown once.", "data": [{"smiles": "C[C@H](NC(=O)Cn1nnc2ccccc2c1=O)c1ccc(OC(F)(F)F)cc1", "note": "[TAK-041, reference compound]", "values": [{"measurement": "Ca2+ signal (% of Cmp 1a)", "setting": "GPR139 [1]; log [Compound] M -5.5, replicate experiments", "result": "99 % of Cmp 1a and 95 % of Cmp 1a and 92 % of Cmp 1a"}, {"measurement": "Ca2+ signal (% of Cmp 1a)", "setting": "GPR139 [1]; log [Compound] M -6.0, replicate experiments", "result": "80 % of Cmp 1a and 94 % of Cmp 1a and 83 % of Cmp 1a"}, {"measurement": "Ca2+ signal (% of Cmp 1a)", "setting": "GPR139 [1]; log [Compound] M -6.5, replicate experiments", "result": "83 % of Cmp 1a and 80 % of Cmp 1a (2×)"}, {"measurement": "Ca2+ signal (% of Cmp 1a)", "setting": "GPR139 [1]; log [Compound] M -7.0, replicate experiments", "result": "63 % of Cmp 1a and 62 % of Cmp 1a (2×)"}, {"measurement": "Ca2+ signal (% of Cmp 1a)", "setting": "GPR139 [1]; log [Compound] M -7.5, replicate experiments", "result": "35 % of Cmp 1a and 36 % of Cmp 1a and 41 % of Cmp 1a"}, {"measurement": "Ca2+ signal (% of Cmp 1a)", "setting": "GPR139 [1]; log [Compound] M -8.0, replicate experiments", "result": "16 % of Cmp 1a and 11 % of Cmp 1a and 17 % of Cmp 1a"}, {"measurement": "Ca2+ signal (% of Cmp 1a)", "setting": "GPR139 [1]; log [Compound] M -8.5, replicate experiments", "result": "0 % of Cmp 1a"}, {"measurement": "Ca2+ signal (% of Cmp 1a)", "setting": "GPR139 [1]; log [Compound] M -9.0, replicate experiments", "result": "0 % of Cmp 1a"}, {"measurement": "Ca2+ signal (% of Cmp 1a)", "setting": "GPR139 [1]; log [Compound] M = -5.5, individual replicate columns", "result": "99 % of Cmp 1a and 95 % of Cmp 1a and 92 % of Cmp 1a"}, {"measurement": "Ca2+ signal (% of Cmp 1a)", "setting": "GPR139 [1]; log [Compound] M = -6.0, individual replicate columns", "result": "80 % of Cmp 1a and 94 % of Cmp 1a and 83 % of Cmp 1a"}, {"measurement": "Ca2+ signal (% of Cmp 1a)", "setting": "GPR139 [1]; log [Compound] M = -6.5, individual replicate columns", "result": "83 % of Cmp 1a and 80 % of Cmp 1a (2×)"}, {"measurement": "Ca2+ signal (% of Cmp 1a)", "setting": "GPR139 [1]; log [Compound] M = -7.0, individual replicate columns", "result": "63 % of Cmp 1a and 62 % of Cmp 1a (2×)"}, {"measurement": "Ca2+ signal (% of Cmp 1a)", "setting": "GPR139 [1]; log [Compound] M = -7.5, individual replicate columns", "result": "35 % of Cmp 1a and 36 % of Cmp 1a and 41 % of Cmp 1a"}, {"measurement": "Ca2+ signal (% of Cmp 1a)", "setting": "GPR139 [1]; log [Compound] M = -8.0, individual replicate columns", "result": "16 % of Cmp 1a and 11 % of Cmp 1a and 17 % of Cmp 1a"}, {"measurement": "Ca2+ signal (% of Cmp 1a)", "setting": "GPR139 [1]; log [Compound] M = -8.5, individual replicate columns", "result": "0 % of Cmp 1a"}, {"measurement": "Ca2+ signal (% of Cmp 1a)", "setting": "GPR139 [1]; log [Compound] M = -9.0, individual replicate columns", "result": "0 % of Cmp 1a"}, {"measurement": "Emax", "setting": "GPR139 [1]; read-out: Emax (%), Ca2+ mobilization", "result": "100 ± 3", "unit": "%"}, {"measurement": "Emax", "setting": "GPR139 [2]; Supplementary Table 4, normalized to Lundbeck Cmp 1a, read-out: Emax (%), IP1 accumulation", "result": "101 ± 9", "unit": "%"}, {"measurement": "IP1 response (% of Cmp 1a)", "setting": "GPR139 [2]; log [Compound] M -4.5", "result": "112 % of Cmp 1a and 93 % of Cmp 1a and 83 % of Cmp 1a and 114 % of Cmp 1a"}, {"measurement": "IP1 response (% of Cmp 1a)", "setting": "GPR139 [2]; log [Compound] M -5.0", "result": "115 % of Cmp 1a and 78 % of Cmp 1a and 92 % of Cmp 1a and 118 % of Cmp 1a"}, {"measurement": "IP1 response (% of Cmp 1a)", "setting": "GPR139 [2]; log [Compound] M -5.5", "result": "87 % of Cmp 1a and 81 % of Cmp 1a and 75 % of Cmp 1a and 93 % of Cmp 1a"}, {"measurement": "IP1 response (% of Cmp 1a)", "setting": "GPR139 [2]; log [Compound] M -6.0", "result": "84 % of Cmp 1a and 66 % of Cmp 1a and 75 % of Cmp 1a and 94 % of Cmp 1a"}, {"measurement": "IP1 response (% of Cmp 1a)", "setting": "GPR139 [2]; log [Compound] M -6.5", "result": "86 % of Cmp 1a and 56 % of Cmp 1a and 45 % of Cmp 1a and 98 % of Cmp 1a"}, {"measurement": "IP1 response (% of Cmp 1a)", "setting": "GPR139 [2]; log [Compound] M -7.0", "result": "63 % of Cmp 1a (2×) and 41 % of Cmp 1a and 62 % of Cmp 1a"}, {"measurement": "IP1 response (% of Cmp 1a)", "setting": "GPR139 [2]; log [Compound] M -7.5", "result": "51 % of Cmp 1a and 26 % of Cmp 1a and 33 % of Cmp 1a and 49 % of Cmp 1a"}, {"measurement": "IP1 response (% of Cmp 1a)", "setting": "GPR139 [2]; log [Compound] M -8.0", "result": "28 % of Cmp 1a and -3.49 % of Cmp 1a and 8 % of Cmp 1a and 21 % of Cmp 1a"}, {"measurement": "outcome of phase II trials", "setting": "[3]; anhedonia in schizophrenia and major depressive disorder", "result": "did not meet the primary endpoints"}, {"measurement": "safety and tolerability", "setting": "[3]", "result": "good safety profile and was well tolerated"}]}]}
